Experimental data published in paper PMC5007552, “The hVps34‐SGK3 pathway alleviates sustained PI3K/Akt inhibition by stimulating mTORC1 and tumour growth” (The EMBO Journal, 2016).

Target: T1, SGK3[S486E] (Homo sapiens, UniProt Q96BR1, S486E)
T1 construct: host or cells: HEK293
T1 sequence (Q96BR1 1-496 S486E): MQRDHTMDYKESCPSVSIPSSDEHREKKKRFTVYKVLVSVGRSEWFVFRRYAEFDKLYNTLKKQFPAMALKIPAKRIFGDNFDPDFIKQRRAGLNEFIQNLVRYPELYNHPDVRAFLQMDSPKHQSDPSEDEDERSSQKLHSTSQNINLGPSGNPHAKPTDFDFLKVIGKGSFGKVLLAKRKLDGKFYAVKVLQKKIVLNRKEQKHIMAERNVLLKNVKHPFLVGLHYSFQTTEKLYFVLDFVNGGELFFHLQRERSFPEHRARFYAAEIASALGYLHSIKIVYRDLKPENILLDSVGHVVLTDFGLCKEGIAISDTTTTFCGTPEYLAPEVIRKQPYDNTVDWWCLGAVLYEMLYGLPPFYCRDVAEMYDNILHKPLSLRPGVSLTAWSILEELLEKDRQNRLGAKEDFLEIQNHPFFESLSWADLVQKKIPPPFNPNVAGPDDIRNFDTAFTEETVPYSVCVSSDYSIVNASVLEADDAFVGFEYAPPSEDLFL
Assay: SGK3 kinase assay on phospholipid vesicles: phosphorylation of SGK3[S486E] at Thr320 by PDK1 with PtdIns(3)P
Type: biochemical
Details: in the presence of PtdIns(3)P
Procedure: Figure 4 PtdIns(3)P binding to PX domain of SGK3 promotes phosphorylation and activation by PDK1 • A, B SGK3 [S486E]‐GST and SGK3 [R90A S486]‐GST were purified from HEK293 cells transiently overexpressing these enzymes. […] SGK3[S486E]‐GST (A) or the non‐PtdIns(3)P‐binding mutant SGK3[R90A, S486E]‐GST (B) was incubated with lipid vesicles comprising phosphatidylcholine (PC) and phosphatidylserine (PS) containing the indicted concentrations of PtdIns or PtdIns(3)P in the presence or absence of added recombinant PDK1 (50 ng) and kinase reactions were initiated by addition of MgATP. After 30 min at 30°C, PDK1 was inhibited by addition of the 1 μM GSK2334470 PDK1 inhibitor and the reaction mixture was supplemented with 2 μg GST‐NDRG1 SGK3 substrate. After another 30 min at 30°C, the reaction was terminated by addition of SDS sample buffer. The reaction mixtures were subjected to immunoblot analysis with the indicated antibodies.
The result for each kinase is presented as a mean kinase activity of the reaction taken in triplicate relative to a control reaction where the inhibitors were omitted. […] SGK3 was immunoprecipitated from cell lysates and subjected to in vitro kinase assay by measuring phosphorylation of the Crosstide substrate peptide in the presence of 0.1 mM [γ‐^32P]ATP in a 30 min 30°C reaction (upper panel). Kinase reactions are presented as means ± SD for triplicate reaction. […]

SMILES: Nc1n[nH]c2nc(-c3ccc(NS(=O)(=O)c4cc(Cl)ccc4Cl)cc3)cnc12 [14h]
- concentration of near maximal inhibition of PDK1 phosphorylating SGK3[S486E] at Thr320: 0.1 µM
